Measurements as given in article PMC6455008, “Methylation at the C-3′ in D-Ring of Strigolactone Analogs Reduces Biological Activity in Root Parasitic Plants and Rice” (Frontiers in Plant Science, 2019).
Like-named read-outs stand apart in the source and are kept apart here.

Tests used:
[1] = target: T1, OsD14 (Oryza sativa subsp. japonica, UniProt Q10QA5); assay: In vitro YLG hydrolysis competition assay, OsD14; assay type: biochemical
T1 construct: made in house
T1 sequence (Q10QA5 1-318): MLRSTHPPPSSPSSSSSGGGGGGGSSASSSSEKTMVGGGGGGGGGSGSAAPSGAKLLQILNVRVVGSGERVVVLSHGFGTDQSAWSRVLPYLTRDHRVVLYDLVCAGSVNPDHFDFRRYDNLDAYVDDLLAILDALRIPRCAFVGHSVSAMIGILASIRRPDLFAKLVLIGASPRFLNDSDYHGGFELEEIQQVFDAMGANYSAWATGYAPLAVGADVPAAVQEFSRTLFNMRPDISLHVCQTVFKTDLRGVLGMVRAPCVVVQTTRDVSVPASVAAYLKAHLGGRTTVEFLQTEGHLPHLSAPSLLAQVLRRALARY
Procedure: (§1) Protein expression and purification of ShHTL7 and Oryza sativa D14 (OsD14) was carried out according to the procedure described earlier ([Jamil et al., 2018]). In vitro Yoshimulactone Green (YLG) hydrolysis assays ([Tsuchiya et al., 2015]) were carried out using 3.0 μM of protein ShHTL7 and OsD14 in a reaction buffer (1X PBS buffer, pH 7.3) with 0.1% DMSO at a 100-μl volume on a 96-well black plate (Greiner). For competitive assays, rac-GR24, AR8, MP13, and MP26 (at range between 0.01 and 50 μM) were co-incubated with 1.0 μM of YLG (Tokyo Chemical Industry Co. Ltd., product number E1238) for 60 min at room temperature. Fluorescent intensity was measured by spectraMax i5 (Molecular Devices) at excitation by 480 nm and detection by 520 nm. The change in fluorescence observed over the course of 1 h of YLG in buffer without protein was subtracted from the data collected in presence of protein. IC50 values were calculated by GraphPad (Prism 7).

[2] = tested on: Arabidopsis seedlings; assay: Arabidopsis hypocotyl elongation assay; assay type: in vivo; details: compared to control seedlings; for inhibition of hypocotyl growth (reduction in hypocotyl length): 1.0 μM
Procedure: The sterilized Arabidopsis seeds were grown in petri plates that were first kept at 4°C in darkness for 3 days. For hypocotyl study, the petri plates were exposed to continuous white light for 24 h, then transferred to continuous monochromatic red light (20 μmol m^−2 s^−1, 22°C) conditions for another 4 days. For lateral root density, the plates were vertically grown at 22°C in Percival incubator under long day conditions (16 h at 22°C/8 h at 16°C day/night, 60% relative humidity, 60–70 μmol m^−2 s^−1 white light) for 8 days. After scanning, the hypocotyl length and number of lateral roots were recorded using publicly available ImageJ software.^1

[3] = tested on: rice d10 mutant; assay: Rice micro tillering bioassay (d10 mutant, hydroponic); assay type: in vivo; details: for inhibition at 2.5 µM: Oryza sativa, read-out: tillering inhibition; for number of tillers per plant: SL-deficient d10 mutant, hydroponic, twice a week up to 3 weeks, untreated d10 six tillers
Procedure: Rice seeds (d10) were sterilized with 2.5% sodium hypochlorite for 15 min. After thorough washing with sterile MilliQ water, the seeds were kept in water for 2 days at 30°C in the dark for imbibition and pre-germination. The pre-germinated seeds were then transferred to moist filter paper in 90-mm petri plates and incubated at 30°C overnight. The plates with germinated seeds were then shifted in a growth cabinet with fluorescent white light (130–180 μM m^−2 s^−1) for 1 week. Seven days-old seedlings were moved to 50-ml falcon tubes (one seedling per tube) containing modified half-strength Hoagland nutrient solution in greenhouse. After 1 week, rice plants were treated with 2.5 μM of each SL analog. Mock and GR24 (2.5 μM) were included as control treatments. Six applications of each SL analog were done two times in a week. After 3 weeks of application, number of tillers per plant, plant height, and fresh biomass were measured at final harvest.

[4] = tested on: P. aegyptiaca seeds; assay: Parasitic seed germination bioassay, Phelipanche; assay type: in vivo, Phelipanche aegyptiaca; details: for EC50: Phelipanche aegyptiaca; for P. aegyptiaca germination rate: non-formulated, 1.0 μM, 1 week at 25°C
Procedure: Germination activity of SL analogs on S. hermonthica and P. aegyptiaca seeds was tested by following the procedure described before ([Jamil et al., 2012]). The preconditioned Striga and Phelipanche seeds were treated with 50 μl of each SL analog solution at a concentration range (10^−5–10^−12 M). GR24 and sterile MilliQ water were included as positive and negative controls, respectively. The treated seeds were allowed to germinate in the dark for 24 h at 30°C (for Striga) and for 1 week at 25°C (for Phelipanche). The germinated and non-germinated seeds were counted under a binocular microscope, and germination rate (in %) was calculated.
Collected data were analyzed statistically using statistical software package R (version 3.2.2).

[5] = target: T2, ShHTL7 (Striga hermonthica, UniProt A0A0M3PNA2); assay: In vitro YLG hydrolysis competition assay, ShHTL7; assay type: biochemical; details: 3.0 μM protein, 1.0 μM YLG, 60 min, room temperature; read-out: IC50, competitive inhibition of ShHTL7-mediated YLG hydrolysis
T2 sequence (A0A0M3PNA2 1-271): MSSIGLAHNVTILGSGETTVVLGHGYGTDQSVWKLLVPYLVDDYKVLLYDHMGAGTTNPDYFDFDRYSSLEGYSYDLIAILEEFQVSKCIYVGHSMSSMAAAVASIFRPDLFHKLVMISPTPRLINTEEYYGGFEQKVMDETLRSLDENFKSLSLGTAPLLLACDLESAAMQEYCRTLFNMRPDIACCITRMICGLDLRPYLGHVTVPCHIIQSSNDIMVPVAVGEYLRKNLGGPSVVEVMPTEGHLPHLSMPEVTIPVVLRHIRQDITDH
Procedure: as §1

[6] = tested on: Striga hermonthica; assay: Striga emergence in pots under greenhouse conditions (suicidal germination, rice host); assay type: in vivo; details: formulated 1.0 μM; for Striga emergence at 10 WAS / decrease in Striga emergence compared to mock at 10 WAS: 10 weeks after sowing; for Striga hermonthica emergence, 5 WAS / Striga hermonthica emergence, 6 WAS / Striga hermonthica emergence, 7 WAS / Striga hermonthica emergence, 8 WAS / Striga hermonthica emergence, 9 WAS / Striga hermonthica emergence, 10 WAS: mean ± SE; for Striga hermonthica emergence, 5 WAS: n=5, 5 weeks after sowing; for Striga hermonthica emergence, 6 WAS: n=5, 6 weeks after sowing; for Striga hermonthica emergence, 7 WAS: n=5, 7 weeks after sowing; for Striga hermonthica emergence, 8 WAS: n=5, 8 weeks after sowing; for Striga hermonthica emergence, 9 WAS: n=5, 9 weeks after sowing; for Striga hermonthica emergence, 10 WAS: n=5, 10 weeks after sowing; for percent decrease in Striga hermonthica emergence over mock, 8 WAS / percent decrease in Striga hermonthica emergence over mock, 9 WAS / percent decrease in Striga hermonthica emergence over mock, 10 WAS: negative = decrease
Procedure: About 10 mg of (ca 4,000) Striga seeds were thoroughly mixed in 2 L of sand and soil mixture (1:1) and added in 3-L perforated plastic pot containing 0.5 L of clean soil in the bottom. Striga seeds were first preconditioned by giving light irrigation and putting pots at 35°C in greenhouse for 10 days. Each pot was sprayed with 20-ml (1.0 μM) formulated SL analogs up to 10 days at 2-day intervals. A light irrigation was given next day of each application to move the compound to Striga seeds and they were allowed to germinate for suicidal death without host for another 1 week. Then, three rice seedlings (5 days old) were planted in the middle of each pot. The rice plants were grown under normal growth condition (30°C, 70% RH) for 8 weeks. Number of emerged Striga plants in each pot were counted.

[7] = tested on: Striga seeds; assay: Stability of formulated SL analogs in sand (Striga germination readout); assay type: physicochemical, Striga hermonthica; details: 1.0 μM; for Striga seed germinating activity before incubation in sand: no incubation
Procedure: The stability of formulated SL analogs was further tested in sand culture. About 1.5 ml of silver sand was added in each of 6 wells of 24-well plates. Then, 800 μl of formulated SL analogs (1.0 μM) was added in each of the six wells. The plates were sealed firmly with para-film, wrapped in aluminum foil, and placed at 30°C from day 1 to day 7. After 7 days, glass fiber discs containing preconditioned Striga seeds were placed on the top of each of the six wells and incubated in the dark at 30°C for 24 h. The germinated and non-germinated seeds were counted from each disc. In addition, the viability of formulated SL analogs was also tested in aqueous solution for 7 weeks at 30°C. About 800-μl aqueous solution of formulated SL analogs (1.0 μM) was added in a black Eppendorf tube weekly up to 6 weeks and incubated at 30°C. On the seventh week, about 50 μl of each analog was applied on a glass fiber disc containing preconditioned Striga seed and put again in the dark in sealed petri plates at 30°C for 24 h. Germinated and non-germinated seeds were counted from each disc.

[8] = read-out: EC50 P. aegyptiaca seed germination, formulated
[9] = read-out: EC50 P. aegyptiaca seed germination, non-formulated

| SMILES | IC50 [1] | inhibition of hypocotyl growth (reduction in hypocotyl length) [2] | inhibition at 2.5 µM [3] | number of tillers per plant ([3]; 2.5 μM) | EC50 [4, 8] | EC50 [4, 9] | P. aegyptiaca germination rate [4] | IC50 [5] | Striga emergence at 10 WAS [6] | decrease in Striga emergence compared to mock at 10 WAS [6] | Striga hermonthica emergence, 5 WAS [6] | Striga hermonthica emergence, 6 WAS [6] | Striga hermonthica emergence, 7 WAS [6] | Striga hermonthica emergence, 8 WAS [6] | Striga hermonthica emergence, 9 WAS [6] | Striga hermonthica emergence, 10 WAS [6] | percent decrease in Striga hermonthica emergence over mock, 8 WAS [6] | percent decrease in Striga hermonthica emergence over mock, 9 WAS [6] | percent decrease in Striga hermonthica emergence over mock, 10 WAS [6] | Striga seed germinating activity after 1 day in sand ([7]; sand, 30°C) | also measured |
| --- | --- | --- | --- | --- | --- | --- | --- | --- | --- | --- | --- | --- | --- | --- | --- | --- | --- | --- | --- | --- | --- |
| CC1=CC(O/C=C(\C)C=O)OC1=O (stereo not shown) [MP13, (E)-2-methyl-3-[(4-methyl-5-oxo-2,5-dihydrofuran-2-yl)oxy]acrylaldehyde] | 3450 ± 1200 nM | did not lead to a significant effect | 23% | 4.5 tillers per plant | 250 nM | 32 nM | around 68% | 3870 ± 900 nM | six | 52% | 0.0±0.0 | 1.6±1.0 | 2.6±0.6 | 4.8±0.6 | 5.8±0.6 | 6.2±0.7 | -56% | -51% | -52% | 10% | Striga seed germinating activity before incubation in sand [7]: around 60%; Striga seed germinating activity after 2 days in sand ([7]; sand, 30°C, 2 days): complete loss of the activity |
| CC1=C(C)C(O/C=C(\C)C=O)OC1=O (stereo not shown) [AR8, reference compound] | 4870 ± 780 nM | did not lead to a significant effect | – | 5.6 tillers per plant | 320 nM | 970 nM | 32% | 6900 ± 970 nM | 11 plants per pot | around 18% | 0.4±0.2 | 4.4±0.5 | 7.2±1.5 | 10.6±1.5 | 10.8±1.5 | 10.6±1.5 | -4% | -11% | -18% | completely lost its ability to induce Striga germination | – |
| COC(=O)/C=C/C(C)=C/OC1C=C(C)C(=O)O1 (stereo not shown) [MP26, (2E,4E)-methyl 4-methyl-5-(4-methyl-5-oxo-2,5-dihydrofuran-2-yloxy)penta-2,4-dienoate] | 2070 ± 800 nM | – | 57% | 2.5 tillers per plant | 99 nM | 520 nM | around 68% | 5300 ± 710 nM | four | 69% | 0.0±0.0 | 0.8±0.6 | 1.4±0.4 | 2.6±0.4 | 3.6±0.8 | 4.0±0.9 | -76% | -68% | -69% | 27% | inhibition at 1 µM ([2]; Arabidopsis thaliana, read-out: inhibition of hypocotyl growth (reduction in hypocotyl length)): 15%; plant height compared to mock ([3]; d10 mutant, 2.5 μM): significant increase in plant height; Striga seed germinating activity before incubation in sand [7]: around 60%; Striga seed germinating activity after day 3 in sand ([7]; sand, 30°C, after day 3): not detectable |
